Source: PMC12555100, “Dextromethorphan Versus Dextrorphan: A Quantitative Comparison of Antitussive Potency Following Separate Administration of Metabolite” (Journal of Clinical Pharmacology, 2025)
Where “and” joins values, the source holds several entries; their conditions need not be identical. Equal entries are not always repeated. Where two headings read alike, the source gives them in different places.

What was measured:
[1] = Plasma concentrations of DEX and unconjugated DOR (HPLC), model-independent pharmacokinetics; type: in vivo, human; details: for 24‐h plasma concentration: almost all subjects (except in 2 cases); for AUC / Cmax / Tmax: both sexes, human, oral
Excerpt: The clinical trial has been performed according to the Declaration of Helsinki and was approved by the North Sheffield Research and Ethics Committee (approval number NS98/183). All participants enrolled into the clinical trial have given informed consent. Data were collected from twenty‐three healthy non‐smoker volunteers (12 male) aged 19‐51 years who took part in a double‐blind randomized placebo controlled cross‐over study. […] The exclusion criteria were respiratory tract infection or acute cough within the last 4 weeks, receiving any medication within previous 2 weeks, and any medical condition which may interfere with the study. Preceding the visit day, the volunteer was asked to fast for 8 h, abstain from alcohol, and abstain from caffeinated drinks throughout the study day. Written informed consent was obtained from all volunteers. The study was approved by the […] Research and Ethics Committee. Subjects' cough response to citric acid challenge test was studied on three separate occasions (separated at least 7 days apart) following administration of (i) placebo; (ii) 40.5 mg dextromethorphan hydrobromide; (iii) 44.6 mg of dextrorphan‐D‐tartrate. The order of treatments (placebo, DEX, and DOR) was randomized across participants using a balanced Latin square design to ensure equal distribution of sequence effects. Blood samples for PK analysis were taken periodically (at 0, 1, 2, 3, 4, 5, 6, 8, 10, 12, and 24 h post administration of DEX and DOR).
Plasma concentrations of DEX and unconjugated DOR were determined using high‐performance liquid chromatography with fluorometric detection according to the method of Chen et al.[25] The intra‐assay coefficient of variation for these analyses at a concentration of 2.5 ng/mL ranged from 6% to 13%. The lower limits of quantification were determined to be 0.3 ng/mL for DOR and 0.5 ng/mL for DEX.
The percent of change in cough number relative to the baseline (t = 0) was plotted against time and the maximum reduction in cough response (Emax) and its […] (TEmax) were determined. The area under the percent of reduction in cough number against time between 0 until 24 h (AUEC0‐24 h) was calculated using the trapezoidal rule. The correlation between AUEC0‐24 h and area under plasma concentration time between zero and 24 h (AUC0‐24 h) of DEX, (endogenously) formed DOR and directly administered DOR was statistically examined using Spearman rank correlation test. The Friedman test (followed by Dunn's multiple comparison) was used to compare the AUC values of DEX and DOR, as well as the AUEC values, between the different arms of the study.

[2] = Population pharmacokinetic model (joint parent drug-metabolite model; two-compartment model for DOR given on its own); type: in vivo, human; details: for Vd/F / Between‐subject variability of V/F: after administration of DEX; for Vd/F: taken as equal for DEX and DOR, read-out: V/F, volume of distribution; for Between‐subject variability of V/F: common to DEX and DOR
Protocol: Pharmacokinetic/pharmacodynamic analysis (PKPD) of DEX and DOR was conducted using non‐linear mixed effects modelling with Monolix software, 2024R1 (Lixoft SAS, Antony, France). The analysis followed a sequential approach, where the PK parameters of both compounds were estimated initially, and then these were used alongside the cough data to build the PK/PD model. The model components are described below:
A joint parent drug‐metabolite model[26] (Figure 1) was considered for DEX and DOR following administration of DEX with first‐pass effect and without dose apportionment. Different goodness‐of‐fit factors, such as corrected Bayesian information criterion (BICc), various diagnostic plots, such as visual predictive check used for final model selection. This model assumed a one‐compartment model for both compounds and unidirectional transformation of the parent drug to the metabolite in DEX arm of the study. The distribution of DOR after its administration on its own in a separate arm of the study was considered to follow a two‐compartment model. Inter‐individual variability of PK parameters was assumed to be log‐normally distributed. Proportional error model was used to model the intra‐individual variability.
Figure 1 Schematic representation of the joint parent drug‐metabolite structural model with first‐pass effect and without dose‐apportionment used to describe the pharmacokinetics of dextromethorphan and dextrorphan following administration of dextromethorphan. F, bioavailability of the parent drug; DEX dose, dose of dextromethorphan; ka(DORDEX), absorption constant of dextromethorphan; ka(DOR), absorption constant of dextrorphan; kpm, transformation rate constant from parent to metabolite; VDEX and VDOR_DEX are the volume of the central compartment for the dextromethorphan and dextrorphan, respectively which are considered to be equal; k(DEX), elimination rate constant for dextromethorphan by other pathways; k(DOR), the elimination constant of dextrorphan.
As shown, the concentration of DOR formed by the metabolism of DEX is higher than that of the DOR after preformed DOR is administered on its own. The joint parent drug‐metabolite model with first‐pass effect and without dose apportionment best described the plasma concentration‐time profile of DEX and unconjugated DOR following administration of DEX. The two‐compartment model fitted well to the data of DOR from the administration of preformed DOR. The goodness‐of‐fit of the combined models could be seen in the observed versus predicted plots and visual predictive check graphs of the models (Figure 4). […] Since there was not enough data in the absorption phase, the value of first‐order absorption rate constant for both DEX and preformed DOR was fixed to the reported values of 2.6 h^−1 23. To prevent the identifiability problem, equal extravascular apparent volume of distributions were considered for the parent drug and the metabolite in the joint model. It is important to emphasize that the primary focus of this study is on characterizing the PKPD relationship rather than on developing a detailed PK model. While a mechanistic PK model can provide insights, our primary objective can also be achieved using any empirical PK model, provided it adequately describes the data and supports the PKPD link. The selection of a one‐compartment model for DEX and a two‐compartment model for DOR reflects this practical approach and ensures compatibility with the data under different conditions. The disparity of the disposition model for DOR may indicate that formation kinetics from DEX masks the first phase of distribution when assessing the kinetics of formed DOR, whilst this becomes evident under direct administration of DOR.

[3] = fixed in the model for DEX and directly administered (preformed) DOR, cited from earlier work
Caco‐2 monolayers = details: cited from earlier work
[4] = plasma, mean, plasma, the administered compound itself (40.5 mg DEX HBr or 44.6 mg DOR-D-tartrate), unconjugated DOR, read-out: AUC0‐24 h, mean
[5] = plasma, mean, plasma, the administered compound itself (40.5 mg DEX HBr or 44.6 mg DOR-D-tartrate), unconjugated DOR, read-out: Cmax, mean
[6] = plasma, mean, plasma, the administered compound itself (40.5 mg DEX HBr or 44.6 mg DOR-D-tartrate), unconjugated DOR, read-out: Tmax, mean
[7] = plasma, median, plasma, the administered compound itself, read-out: AUC0‐24 h, median
[8] = plasma, median, plasma, the administered compound itself, read-out: Tmax, median
[9] = both sexes, human, plasma, oral, population estimate
[10] = population PK model, direct administration of DOR
[11] = population estimate, after direct administration of DOR

Compound	24‐h plasma concentration [1]	AUC [1, 4] [ng·h/mL]	Cmax [1, 5] [ng/mL]	Tmax [1, 6] [h]	AUC [1, 7] [ng·h/mL]	Tmax [1, 8] [h]	Vd/F [2, 9] [L]	Between‐subject variability of V/F ([2]; population PK model) [CV%]	ka, first-order absorption rate constant (fixed) [3]	Permeability, DEX compared with DOR (Caco‐2 monolayers)	other results
COc1ccc2c(c1)[C@]13CCCC[C@@H]1[C@H](C2)N(C)CC3 [DEX, dextromethorphan]	below the limit of quantitation	26.7	3.5	1.8	16.7	1	4870	48	2.6 h^−1 and 2.6 (fixed) h^−1	comparable permeability	Cmax, median ([1]; median, plasma, the administered compound itself): 2.2 ng/mL; k el ([2]; both sexes, human, plasma, oral, population estimate, read-out: k(DEX), elimination rate constant for dextromethorphan by other pathways (converted)): 2.78e-05 s⁻¹; Between‐subject variability of k(DEX) ([2]; population PK model): 108 CV%; Between‐subject variability of kpm ([2]; population PK model): 43 CV%; kpm, transformation rate constant from parent (dextromethorphan) to metabolite (dextrorphan) ([2]; population estimate): 0.04 h⁻¹
CN1CC[C@@]23CCCC[C@@H]2[C@@H]1Cc1ccc(O)cc13 [DOR, dextrorphan]	below the limit of quantitation	17.4	4.1	1.1	18.9	1	4870	48	2.6 (fixed) h^−1	comparable permeability	Cmax and Tmax of formed DOR compared with direct administration of DOR ([1]; Friedman and Dunn's tests): not statistically different; AUC0−24 h of formed DOR (from DEX metabolism) compared with direct administration of DOR ([1]; Friedman and Dunn's tests, P‐value = .003, higher molar dose of DOR than of DEX): significantly higher; Cmax ([1]; plasma, median, plasma, the administered compound itself, read-out: Cmax, median): 3.8 ng/mL; Plasma concentration of DOR relative to DEX after administration of DEX ([1]; majority of measurement times): up to twofold higher; Between‐subject variability of k(DOR) ([2]; population PK model): 32 CV%; Between‐subject variability of V1/F(DOR) [2, 10]: 32 CV%; Between‐subject variability of k12(DOR) [2, 10]: 196 CV%; Between‐subject variability of k21(DOR) [2, 10]: 299 CV%; k(DOR), elimination constant of dextrorphan ([2]; population estimate): 0.2 h⁻¹; V1/F(DOR), volume of the central compartment [2, 11]: 6984 L; k12(DOR), transfer rate constant central to peripheral [2, 11]: 0.57 h⁻¹; k21(DOR), transfer rate constant peripheral to central [2, 11]: 0.60 h⁻¹; ka, first-order absorption rate constant (fixed) ([3]; listed as preformed DOR): 2.6 h⁻¹
